From patent US9073892B2, “Indazolyl triazol derivatives” (Merck Serono S.A., priority 2010, dated 2015)

test system: T1, IRAK1/4 human; assay: IRAK1/4 phosphorylation IC50 (enzymatic assay, table 2); assay type: biochemical; conditions: human IRAK1/4 phosphorylation
T1 construct: fused on or other part: His tag and TEV cleavage site at the N-terminus
How it was run: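 Human IRAK-1 or IRAK-4, each carrying a His-TEV tag, was incubated with ATP and compounds in DMSO ranging from 20 µM to 1 nM in 384-well plates, and IRAK-4 reactions also contained STK1-biotin peptide. Reactions ran in 50 mM Hepes pH7.0 with MgCl2, DTT, EGTA and BSA for 2 or 3 hours, with 2% DMSO controls. Inhibition is given as IC50.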

Row | IC50 | Structure (SMILES)
1 | 100 to 1000 nM | CC(C)Cc1ccc2[nH]nc(-c3cn(-c4ccc(C(=O)N5CCC(N(C)C)CC5)cc4)nn3)c2c1 [Example 139, 1-{4-[4(5-isobutyl-1H-indazol-3-yl)-1H-1,2,3-triazol-1-yl]benzoyl}-N,N-dimethylpiperidin-4-amine]
2 | 100 to 1000 nM | COC(=O)c1ccc2[nH]nc(-c3cn(-c4ccc(CN5CCOCC5)cc4)nn3)c2c1 [Example 142, methyl 3-{1-[4-(morpholin-4-ylmethyl)phenyl]-1H-1,2,3-triazol-4-yl}-1H-indazole-5-carboxylate]
3 | 100 to 1000 nM | CN1CCC(NC(=O)c2ccc3[nH]nc(-c4cn(-c5ccc(CN6CCOCC6)cc5)nn4)c3c2)CC1 [Example 143, N-(1-methylpiperidin-4-yl)-3-{1-[4-(morpholin-4-ylmethyl)phenyl]-1H-1,2,3-triazol-4-yl}-1H-indazole-5-carboxamide]
4 | < 100 nM | O=C(c1ccc(-n2cc(-c3n[nH]c4ccc(Cn5nc(-c6ccc(O)cc6)ccc5=O)cc34)nn2)cc1)N1CCOCC1 [Example 144, 6-(4-hydroxyphenyl)-2-[(3-{1-[4-(morpholin-4-ylcarbonyl)phenyl]-1H-1,2,3-triazol-4-yl}-1H-indazol-5-yl)methyl]pyridazin-3(2H)-one]
5 | 100 to 1000 nM | O=C(c1ccc(-n2cc(-c3n[nH]c4cc(C#CCO)ccc34)nn2)cc1)N1CCOCC1 [Example 146, 3-(3-{1-[4-(morpholin-4-ylcarbonyl)phenyl]-1H-1,2,3-triazol-4-yl}-1H-indazol-6-yl)prop-2-yn-1-ol]
6 | 100 to 1000 nM | O=C(c1ccc(-n2cc(-c3n[nH]c4cc(CCCO)ccc34)nn2)cc1)N1CCOCC1 [Example 147, 3-(3-{1-[4-(morpholin-ylcarbonyl)phenyl]-1H-1,2,3-triazol-4-yl}-1H-indazol-6-yl)propan-1-ol]
7 | < 100 nM | CN1CCCC(Nc2ccc3[nH]nc(-c4cn(-c5ccc(C(=O)N6CCOCC6)cc5)nn4)c3c2)C1 (stereo not drawn) [Example 148, N-(1-methylpiperidin-3-yl)-3-{1-[4-(morpholin-4-ylcarbonyl)phenyl]-1H-1,2,3-triazol-4-yl}-1H-indazol-5-amine]
8 | < 100 nM | CN(C)C1CCN(c2ccc3[nH]nc(-c4cn(-c5ccc(C(=O)N6CCOCC6)cc5)nn4)c3c2)C1 (stereo not drawn) [Example 149, N,N-dimethyl-1-(3-{1-[4-(morpholin-4-ylcarbonyl)phenyl]-1H-1,2,3-triazol-4-yl}-1H-indazol-5-yl)pyrrolidin-3-amine]
9 | 100 to 1000 nM | OC(c1ccc(-n2cc(-c3n[nH]c4ccccc34)nn2)cc1)C(F)(F)F (stereo not drawn) [Example 150, 2,2,2-trifluoro-1-{4-[4-(1H-indazol-3-yl)-1H-1,2,3-triazol-1-yl]phenyl}ethanol]
10 | 100 to 1000 nM | O=C(c1ccc(-n2cc(-c3n[nH]c4ccc(OCCCO)cc34)nn2)cc1)N1CCOCC1 [Example 153, 3-[(3-{1-[4-(morpholin-4-ylcarbonyl)phenyl]-1H-1,2,3-triazol-4-yl}-1H-indazol-5-yl)oxy]propan-1-ol]
11 | 100 to 1000 nM | O=C1C[C@H](OCc2ccc3[nH]nc(-c4cn(-c5ccc(C(=O)N6CCOCC6)cc5)nn4)c3c2)CO1 [Example 154, (4S)-4-[(3-{1-[4-(morpholin-4-ylcarbonyl)phenyl]-1H-1,2,3-triazol-4-yl}-1H-indazol-5-yl)methoxy]dihydrofuran-2(3H)-one]
12 | 100 to 1000 nM | O=C(c1ccc(-n2cc(-c3n[nH]c4ccccc34)nn2)cn1)N1CCOCC1 [Example 155]
13 | 100 to 1000 nM | O=C(c1ccc(-n2cc(-c3n[nH]c4ccc(C(F)(F)F)cc34)nn2)cc1)N1CCOCC1 [Example 156]
14 | 100 to 1000 nM | O=C(c1ccc(-n2cc(-c3n[nH]c4ccc(F)cc34)nn2)cc1)N1CCOCC1 [Example 157]
15 | 100 to 1000 nM | CN(C)C1CCN(C(=O)c2ccc(-n3cc(-c4n[nH]c5ccc(C(F)(F)F)cc45)nn3)cc2)CC1 [Example 159]
16 | 100 to 1000 nM | CC1CN(C(=O)c2ccc(-n3cc(-c4n[nH]c5ccccc45)nn3)cc2)CCO1 (stereo not drawn) [Example 160]
17 | 100 to 1000 nM | O=C(c1ccc(-n2cc(-c3n[nH]c4ccccc34)nn2)cc1)N1CCOC(CO)C1 (stereo not drawn) [Example 161]
18 | 100 to 1000 nM | CC1(C)CN(C(=O)c2ccc(-n3cc(-c4n[nH]c5ccccc45)nn3)cc2)CCO1 [Example 162]
19 | 100 to 1000 nM | CN1CCCC2(CCCN(C(=O)c3ccc(-n4cc(-c5n[nH]c6ccccc56)nn4)cc3)C2)C1=O (stereo not drawn) [Example 163]
20 | 100 to 1000 nM | CCOCC1CCCN(C(=O)c2ccc(-n3cc(-c4n[nH]c5ccccc45)nn3)cc2)C1 (stereo not drawn) [Example 164]

Row | IC50 | Structure (SMILES)
21 | 100 to 1000 nM | O=C(c1ccc(-n2cc(-c3n[nH]c4ccccc34)nn2)cc1)N1CCCC2(COC2)C1 [Example 165]
22 | 100 to 1000 nM | O=C(c1ccc(-n2cc(-c3n[nH]c4ccccc34)nn2)cc1)N1CCN2CCCC2C1 (stereo not drawn) [Example 166]
23 | 100 to 1000 nM | O=C(c1ccc(-n2cc(-c3n[nH]c4ccccc34)nn2)cc1)N1CCOC(CCO)C1 (stereo not drawn) [Example 167]
24 | 100 to 1000 nM | COCCC1CN(C(=O)c2ccc(-n3cc(-c4n[nH]c5ccccc45)nn3)cc2)CCO1 (stereo not drawn) [Example 168]
25 | 100 to 1000 nM | O=C(Nc1cnn(C2CCNC2)c1)c1ccc(-n2cc(-c3n[nH]c4ccccc34)nn2)cc1 (stereo not drawn) [Example 169]
26 | 100 to 1000 nM | O=C(c1ccc(-n2cc(-c3n[nH]c4ccccc34)nn2)cc1)N1CC2(COC2)C1 [Example 170]
27 | 100 to 1000 nM | CN(C(=O)c1ccc(-n2cc(-c3n[nH]c4ccccc34)nn2)cc1)C1CCOCC1 [Example 171]
28 | 100 to 1000 nM | CN(C)C1CCN(C(=O)c2ccc(-n3cc(-c4n[nH]c5ccc(C6=CCCC6)cc45)nn3)cc2)CC1 [Example 172]
29 | 100 to 1000 nM | CN(C)C1CCN(C(=O)c2ccc(-n3cc(-c4n[nH]c5ccc(C6=CCOCC6)cc45)nn3)cc2)CC1 [Example 173]
30 | 100 to 1000 nM | CN(C)C1CCN(C(=O)c2ccc(-n3cc(-c4n[nH]c5ccc(C6=CCCCC6)cc45)nn3)cc2)CC1 [Example 174]
31 | 1000 to 5000 nM | Cc1cccc2[nH]nc(-c3cn(-c4ccc(C(=O)N5CCOCC5)cc4)nn3)c12 [Example 175]
32 | 100 to 1000 nM | O=C(Nc1cnn(CCc2ccncc2)c1)c1ccc(-n2cc(-c3n[nH]c4ccccc34)nn2)cc1 [Example 176]
33 | < 100 nM | O=C(c1ccc(-n2cc(-c3n[nH]c4ccc(Cn5nc(-c6cccnc6)ccc5=O)cc34)nn2)cc1)N1CCOCC1 [Example 177]
34 | 100 to 1000 nM | CN(C)C1CCN(C(=O)c2ccc(-n3cc(-c4n[nH]c5ccc(C6CCOCC6)cc45)nn3)cc2)CC1 [Example 178]
35 | 100 to 1000 nM | CN(C)C1CCN(C(=O)c2ccc(-n3cc(-c4n[nH]c5ccc(C6CCCCC6)cc45)nn3)cc2)CC1 [Example 179]
36 | 100 to 1000 nM | c1ccc2c(-c3cn(-c4cnn(CCN5CCOCC5)c4)nn3)n[nH]c2c1 [Example 180]
37 | 100 to 1000 nM | COc1cnccc1-c1ccc2[nH]nc(-c3cn(-c4ccc(C(=O)N5CCOCC5)cc4)nn3)c2c1 [Example 181]
38 | 1000 to 5000 nM | O=C(c1ccc(-n2cc(-c3n[nH]c4cccc(F)c34)nn2)cc1)N1CCOCC1 [Example 182]
39 | 100 to 1000 nM | CN(C)C1CCN(C(=O)c2ccc(-n3cc(-c4n[nH]c5ccc(C6CCCC6)cc45)nn3)cc2)CC1 [Example 183]
40 | < 100 nM | Cc1ccc2c(-c3cn(-c4ccc(C(=O)N5CCOCC5)cc4)nn3)n[nH]c2c1 [Example 184]

Row | IC50 | Structure (SMILES)
41 | 100 to 1000 nM | O=C(c1ccc(-n2cc(-c3n[nH]c4cc(Cl)ccc34)nn2)cc1)N1CCOCC1 [Example 185]
42 | < 100 nM | CN1CCC(n2cc(-n3cc(-c4n[nH]c5ccccc45)nn3)cn2)CC1 [Example 186]
43 | 100 to 1000 nM | OCc1ccc(-n2cc(-c3n[nH]c4ccccc34)nn2)cc1 [Example 187]
44 | 100 to 1000 nM | COc1cc2[nH]nc(-c3cn(-c4ccc(C(=O)N5CCOCC5)cc4)nn3)c2cc1OC [Example 189]
45 | < 100 nM | O=C(c1ccc(-n2cc(-c3n[nH]c4ccc(Cn5nc(-c6ccc(O)c(F)c6)ccc5=O)cc34)nn2)cc1)N1CCOCC1 [Example 190]
46 | < 100 nM | O=C(c1ccc(-n2cc(-c3n[nH]c4ccc(O)cc34)nn2)cc1)N1CCOCC1 [Example 192]
47 | 100 to 1000 nM | O=C(c1ccc(-n2cc(-c3n[nH]c4ccc(Cl)cc34)nn2)cc1)N1CCOCC1 [Example 193]
48 | 100 to 1000 nM | O=C(c1ccc(-n2cc(-c3n[nH]c4cc(F)ccc34)nn2)cc1)N1CCOCC1 [Example 194]
49 | 100 to 1000 nM | COc1ccc2c(-c3cn(-c4ccc(C(=O)N5CCOCC5)cc4)nn3)n[nH]c2c1 [Example 195]
50 | < 100 nM | O=c1ccc(-c2ccncc2)nn1Cc1ccc2[nH]nc(-c3cn(-c4ccc(CN5CCOCC5)cc4)nn3)c2c1 [Example 196]
51 | 100 to 1000 nM | OCc1ccc2[nH]nc(-c3cn(-c4ccc(CN5CCOCC5)cc4)nn3)c2c1 [Example 198]
52 | 100 to 1000 nM | O=c1ccc(-c2ccc(O)cc2)nn1Cc1ccc2[nH]nc(-c3cn(-c4ccc(CN5CCOCC5)cc4)nn3)c2c1 [Example 199]
53 | < 100 nM | O=c1ccc(-c2cccc(O)c2)nn1Cc1ccc2[nH]nc(-c3cn(-c4ccc(CN5CCOCC5)cc4)nn3)c2c1 [Example 200]
54 | 100 to 1000 nM | C=C(C)c1ccc2c(-c3cn(-c4ccc(C(=O)N5CCOCC5)cc4)nn3)n[nH]c2c1 [Example 201]
55 | 1000 to 5000 nM | COc1cc2[nH]nc(-c3cn(-c4ccc(C(=O)N5CCOCC5)cc4)nn3)c2cc1Br [Example 202]
56 | 1000 to 5000 nM | O=C(c1ccc(-n2cc(-c3n[nH]c4cc(-c5ccccc5)ccc34)nn2)cc1)N1CCOCC1 [Example 203]
57 | 100 to 1000 nM | c1ccc2c(-c3cn(-c4ccc(CC5CCNCC5)cc4)nn3)n[nH]c2c1 [Example 205]
58 | 100 to 1000 nM | CC(C)c1ccc2c(-c3cn(-c4ccc(C(=O)N5CCOCC5)cc4)nn3)n[nH]c2c1 [Example 206]
59 | 1000 to 5000 nM | O=C(c1ccc(-n2cc(-c3n[nH]c4cc(-c5ccc(CO)cc5)ccc34)nn2)cc1)N1CCOCC1 [Example 207]

Row | Structure (SMILES) | IC50
60 | CN1C2CCC1CC(n1cc(-n3cc(-c4n[nH]c5ccccc45)nn3)cn1)C2 (stereo not drawn) [Example 140, 3-{1-[1-(8-methyl-8-azabicyclo[3.2.1]oct-3-yl)-1H-pyrazol-4-yl]-1H-1,2,3-triazol-4-yl}-1H-indazole] | < 100 nM
